Experimental findings from patent US20210238170A1, “5,5-Difluoro- and 5-Fluoro-5-Methyl-C-Glycoside Derivatives Useful As Dual SGLT1 / SGLT2 Modulators” (Janssen Pharmaceutica NV, priority 2018, published 2021) are described below.

The target in assay [1] is T1, human SGLT1 (Homo sapiens, UniProt P13866).
T1 construct: expressed in transfected cells
T1 sequence (P13866 1-664): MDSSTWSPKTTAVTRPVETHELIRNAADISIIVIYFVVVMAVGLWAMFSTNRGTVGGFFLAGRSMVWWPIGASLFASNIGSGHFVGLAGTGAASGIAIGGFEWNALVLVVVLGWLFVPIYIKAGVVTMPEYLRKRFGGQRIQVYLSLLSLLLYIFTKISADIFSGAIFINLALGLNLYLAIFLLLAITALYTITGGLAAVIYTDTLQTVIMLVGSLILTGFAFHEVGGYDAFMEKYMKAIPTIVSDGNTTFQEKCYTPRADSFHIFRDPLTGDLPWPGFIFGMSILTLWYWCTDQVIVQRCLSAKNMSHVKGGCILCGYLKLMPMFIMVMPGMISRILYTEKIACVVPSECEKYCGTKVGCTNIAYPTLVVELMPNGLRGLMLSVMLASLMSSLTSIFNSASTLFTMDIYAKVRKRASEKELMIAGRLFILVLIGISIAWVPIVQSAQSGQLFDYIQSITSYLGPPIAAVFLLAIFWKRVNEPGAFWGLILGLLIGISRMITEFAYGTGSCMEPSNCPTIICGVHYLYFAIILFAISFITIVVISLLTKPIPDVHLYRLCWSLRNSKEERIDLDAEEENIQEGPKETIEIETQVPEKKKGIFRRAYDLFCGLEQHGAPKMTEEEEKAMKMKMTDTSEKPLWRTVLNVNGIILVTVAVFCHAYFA
Kind of assay: SGLT1 in vitro assay: Na-dependent 14C-AMG uptake in CHO-K1 cells stably expressing human SGLT1. The format is cell-based. Particulars: for inhibition at 0.3 µM: read-out: SGLT1 % Inh @ 0.3 μM; for IC50: compounds of formula (I) where R0 is fluoro. As to the method:
(§1) Biological Example 1: SGLT1 and SGLT2 In Vitro Assays
(§2) The ability of the compounds of formula (I) of the present invention to treat an SGLT-mediated condition was determined using the following procedures:
(§3) SGLT1 and SGLT2 were cloned in form of cDNA from human small intestine (Genbank M24847), and from human kidney (Genbank M95549), respectively. Subsequently, each full cDNA was subcloned into pcDNA with each construct's integrity verified through follow-on sequencing. To generate CHO-K1 cells that stably express human SGLT1 or human SGLT2, CHO-K1 cells were transfected using DMRIE-C reagent (Life Technologies, Gaithersburg, Md.). Transfected cells were then selected in the presence of 500 μg/ml of the Geneticin (G418 Cellgro Catalog No. 30234-CI)
(§4) Individual clones were then characterized using the following cell-based assay for sodium-dependent glucose transport:
(§5) Inhibition of SGLT1 and SGLT2 activity was assessed in CHO K1 cells stably expressing either human SGLT1 or SGLT2, using the SGLT specific glucose analog methyl-glucopyranoside (Sigma Catalog No. M-9376). Cells were plated (45,000 cells/well) in white wall 96-well plates (COSTAR, Cat #3903) for 24 hours in growth medium, then a final concentration of 10 mM Na-Butyrate (ALDRICH Cat #30341-0) was added. The cells were incubated for 24 hours. On the day of the assay, cells were rinsed and treated with test compounds (at concentrations of 0.001 μM to 10 μM) in assay buffer (50 mM HEPES, 20 mM Tris base, 5 mM KCl, 1 mM MgCl2, 1 mM CaCl2 and 137 mM NaCl, pH 7.4) for 10 minutes. Cells were then incubated with ^14C-a-methyl-d-glucopyranoside (AMG, Amersham Catalog No. CFB 76), using 0.07 μCi per well in 500 µM AMG final concentration. The cells were incubated for 2 hours at 37° C. with 5% CO2 and washed two times with ice-cold Phosphate Buffer Solution (CELLGRO Catalog No. 21030-CV). The cells were then solubilized by adding 60 μl of MICROSCINT™ 20 and the Na-dependent ^14C-AMG uptake was quantified by measuring radioactivity. Plates were counted in a TopCount (Packard, Meriden, Conn.)
(§6) Representative compounds of the present invention were tested according to the procedures as described in Biological Example 1 and 2 above, with results as listed in Table 5, below. Results are reported as the %-inhibition or IC50 value. Variability for the functional assay was typically within 20%.

In assay [2] the target is T2, human SGLT2 (Homo sapiens, UniProt P31639).
T2 construct: expressed in transfected cells
T2 sequence (P31639 1-672): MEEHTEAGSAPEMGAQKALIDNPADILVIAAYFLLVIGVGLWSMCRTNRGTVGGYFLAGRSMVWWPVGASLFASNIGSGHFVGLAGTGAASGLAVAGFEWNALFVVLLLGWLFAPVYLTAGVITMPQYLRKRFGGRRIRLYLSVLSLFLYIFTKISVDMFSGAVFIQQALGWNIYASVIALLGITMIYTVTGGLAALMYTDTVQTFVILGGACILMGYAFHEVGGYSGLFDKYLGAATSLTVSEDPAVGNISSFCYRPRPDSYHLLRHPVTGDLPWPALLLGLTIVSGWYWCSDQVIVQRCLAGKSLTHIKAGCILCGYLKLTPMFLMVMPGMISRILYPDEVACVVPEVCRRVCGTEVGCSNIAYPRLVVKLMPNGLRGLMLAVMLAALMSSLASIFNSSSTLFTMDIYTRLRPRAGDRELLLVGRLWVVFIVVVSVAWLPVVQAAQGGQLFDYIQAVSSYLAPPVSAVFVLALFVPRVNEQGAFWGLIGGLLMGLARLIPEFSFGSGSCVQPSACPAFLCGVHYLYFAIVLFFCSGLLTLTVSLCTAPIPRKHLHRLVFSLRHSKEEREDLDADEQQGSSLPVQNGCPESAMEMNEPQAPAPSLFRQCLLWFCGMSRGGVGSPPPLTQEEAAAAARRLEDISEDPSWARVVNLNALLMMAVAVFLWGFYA
Description: SGLT2 in vitro assay: Na-dependent 14C-AMG uptake in CHO-K1 cells stably expressing human SGLT2. It counts as cell-based. Particulars: for inhibition at 0.3 µM: read-out: SGLT2 % Inh @ 0.3 μM; for IC50: compounds of formula (I) where R0 is fluoro. As to the method:
as §1, §2, §3, §4, §5, §6

Setting [3] is: @ 0.3 μM, CHO-K1 cells stably expressing human SGLT1, 14C-AMG uptake.
[4] abbreviates: @ 0.3 μM, CHO-K1 cells stably expressing human SGLT2, 14C-AMG uptake.
Setting [5] is: CHO-K1 cells stably expressing human SGLT1, 14C-AMG uptake.
The mark [6] stands for this setting: CHO-K1 cells stably expressing human SGLT2, 14C-AMG uptake.

As to `COc1cc(C)c(Cc2cc3ccccc3s2)cc1[C@@H]1O[C@H](CO)C(F)(F)[C@H](O)[C@H]1O` [Compound 35, (2S,3R,4R,6R)-2-[5-(benzothiophen-2-ylmethyl)-2-methoxy-4-methyl-phenyl]-5,5-difluoro-6-(hydroxymethyl)tetrahydropyran-3,4-diol], the results for the inhibition at 0.3 µM in assay [1] (setting [3]) and in assay [2] (setting [4]) were 39.2% and 76.3%, respectively.
As to `OC[C@H]1O[C@@H](c2cc(Cc3ccc4c(c3)CCO4)c(Cl)c3c2OCC3)[C@H](O)[C@@H](O)C1(F)F` [Compound 114], in assay [1] (setting [3]), the “SGLT1 % Inh @ 0.3 μM” value is given as 36.8%. Moreover, the “SGLT2 % Inh @ 0.3 μM” value in assay [2] (setting [4]) is 80.6%.
`CN(C)c1ccc(Cc2cc([C@@H]3O[C@H](CO)C(F)(F)[C@H](O)[C@H]3O)c(O)cc2C#N)cc1` [Compound 152]: the “SGLT1 % Inh @ 0.3 μM” value in assay [1] (setting [3]) came to 32.7%. Besides, in assay [2] (setting [4]), the “SGLT2 % Inh @ 0.3 μM” value is 84.5%.
By IC50 is commonly meant the midpoint of a concentration-inhibition curve. A high value points to lower potency. Regarding `CCOc1ccc(Cc2cc([C@@H]3O[C@H](CO)C(F)(F)[C@H](O)[C@H]3O)c(O)cc2Cl)cc1` [Compound 162], the figures for the inhibition at 0.3 µM in assay [1] (setting [3]) and in assay [2] (setting [4]) were 56.5% and 73%, respectively. Besides, the IC50 in assay [1] (setting [5]) was 127 nM; in assay [2] (setting [6]), 1.5 nM.
As to `COc1ccc(Cc2cc([C@@H]3O[C@H](CO)C(F)(F)[C@H](O)[C@H]3O)c(OC)cc2OC)cc1` [Compound 92], in assay [1] (setting [3]), the “SGLT1 % Inh @ 0.3 μM” value stood at 30.2%. Further, the “SGLT2 % Inh @ 0.3 μM” value in assay [2] (setting [4]) amounted to 81.9%.
`COc1c([C@@H]2O[C@H](CO)C(F)(F)[C@H](O)[C@H]2O)cc(Cc2ccc(OCF)cc2)c2c1CCO2` [Compound 184]: the “SGLT1 % Inh @ 0.3 μM” value in assay [1] (setting [3]) is 24.7%. The “SGLT2 % Inh @ 0.3 μM” value in assay [2] (setting [4]) stood at 73.2%.
As to `Cc1cc(O)c([C@@H]2O[C@H](CO)C(F)(F)[C@H](O)[C@H]2O)cc1Cc1ccc(-c2ccc(F)cc2)s1` [Compound 68], in assay [1] (setting [3]), the “SGLT1 % Inh @ 0.3 μM” value was 26.6%. Further, the “SGLT2 % Inh @ 0.3 μM” value in assay [2] (setting [4]) stood at 69.5%.
For the compound `CCOc1cc(C)c(Cc2cc3ccccc3s2)cc1[C@@H]1O[C@H](CO)C(F)(F)[C@H](O)[C@H]1O` [Compound 41], in assay [1] (setting [3]), the “SGLT1 % Inh @ 0.3 μM” value was 5.8%. The “SGLT2 % Inh @ 0.3 μM” value in assay [2] (setting [4]) was 85.4%.
On to `Cc1cc(O)c([C@@H]2O[C@H](CO)C(F)(F)[C@H](O)[C@H]2O)cc1Cc1ccc(OC(F)(F)F)cc1` [Compound 99, (2S,3R,4R,6R)-5,5-difluoro-2-(2-hydroxy-4-methyl-5-(4-(trifluoromethoxy)benzyl)phenyl)-6-(hydroxymethyl)-tetrahydro-2H-pyran-3,4-diol], for which the inhibition at 0.3 µM in assay [1] (setting [3]) was 17.3%; in assay [2] (setting [4]), 84.7%.
`CCc1ccc(Cc2cc([C@@H]3O[C@H](CO)C(F)(F)[C@H](O)[C@H]3O)c(O)cc2OC)cc1` [Compound 145]: the inhibition at 0.3 µM in assay [1] (setting [3]) turned out to be 78.1%; in assay [2] (setting [4]) it was 64.4%. For the same compound, the IC50 in assay [1] (setting [5]) is 83 nM; in assay [2] (setting [6]), 2.8 nM.
In the case of `Cc1cc(O)c([C@@H]2O[C@H](CO)C(F)(F)[C@H](O)[C@H]2O)cc1Cc1ccc(-c2cccc(F)c2)s1` [Compound 71], the “SGLT1 % Inh @ 0.3 μM” value in assay [1] (setting [3]) came to 21.6%. Besides, the “SGLT2 % Inh @ 0.3 μM” value in assay [2] (setting [4]) came to 76.8%.
As for `Cc1cc(O)c([C@@H]2O[C@H](CO)C(F)(F)[C@H](O)[C@H]2O)cc1Cc1ccc(Cl)s1` [Compound 110], the inhibition at 0.3 µM in assay [1] (setting [3]) came out at 75%; in assay [2] (setting [4]), 82.4%. The IC50 in assay [1] (setting [5]) is 95 nM; in assay [2] (setting [6]), 5.7 nM.
Taken in the same sequence, the figures for `OC[C@H]1O[C@@H](c2cc(Cc3ccc(C4CC4)cc3)c(Cl)cc2O)[C@H](O)[C@@H](O)C1(F)F` [Compound 136] were 68.7%, 90.9%, 138 nM and 2.1 nM.
As for `COc1c([C@@H]2O[C@H](CO)C(F)(F)[C@H](O)[C@H]2O)cc(Cc2ccc(N(C)C)cc2)c2c1CCO2` [Compound 185], the “SGLT1 % Inh @ 0.3 μM” value in assay [1] (setting [3]) was found to be 25.4%. Further, the “SGLT2 % Inh @ 0.3 μM” value in assay [2] (setting [4]) was determined as 65.3%.
With `CCc1ccc(Cc2cc([C@@H]3O[C@H](CO)C(F)(F)[C@H](O)[C@H]3O)c(OC)cc2C)cc1` [Compound 129], the “SGLT1 % Inh @ 0.3 μM” value in assay [1] (setting [3]) was determined as 16.4%. The “SGLT2 % Inh @ 0.3 μM” value in assay [2] (setting [4]) is reported as 87.1%.
The matching figures for `CCOc1ccc(Cc2cc([C@@H]3O[C@H](CO)C(F)(F)[C@H](O)[C@H]3O)c(OC)cc2C)cc1` [Compound 49]: 23.2% and 79.2%.
With `Cc1ccc(Cc2cc([C@@H]3O[C@H](CO)C(F)(F)[C@H](O)[C@H]3O)c(O)cc2Cl)s1` [Compound 161], the inhibition at 0.3 µM in assay [1] (setting [3]) stood at 87.8%; in assay [2] (setting [4]), 87.6%. Besides, the figures for the IC50 in assay [1] (setting [5]) and in assay [2] (setting [6]) were 35 nM and 2.5 nM, respectively.
The matching figures for `Cc1cc(O)c([C@@H]2O[C@H](CO)C(F)(F)[C@H](O)[C@H]2O)cc1Cc1ccc(OC(F)F)cc1` [Compound 96, (2S,3R,4R,6R)-2-[5-[[4-(difluoromethoxy)phenyl]methyl]-2-hydroxy-4-methyl-phenyl]-5,5-difluoro-6-(hydroxymethyl)tetrahydropyran-3,4-diol]: 49.1%, 81.4%, 318 nM and 4.8 nM.
With `COc1cc(OC)c(C2OC(CO)C(C)(F)C(O)C2O)cc1Cc1ccc2c(c1)CCCO2` (centres unmarked) [Compound 4], in assay [1] (0.3 μM, CHO-K1 cells expressing human SGLT1), the “SGLT1 % Inh @ 0.3 μM” value amounted to 0.9%. In addition, in assay [2] (0.3 μM, CHO-K1 cells expressing human SGLT2), the “SGLT2 % Inh @ 0.3 μM” value was 73.4%.
For `COCCOc1cc(C)c(Cc2cc3ccccc3s2)cc1[C@@H]1O[C@H](CO)C(F)(F)[C@H](O)[C@H]1O` [Compound 39], the “SGLT1 % Inh @ 0.3 μM” value in assay [1] (setting [3]) was found to be 31.8%. In addition, the “SGLT2 % Inh @ 0.3 μM” value in assay [2] (setting [4]) is 76.4%.
The matching figures for `COc1cc(Cl)c(Cc2cc3c(s2)CCN(C(C)=O)C3)cc1[C@@H]1O[C@H](CO)C(F)(F)[C@H](O)[C@H]1O` [Compound 73]: 21.4% and 55.0%.
The matching figures for `OC[C@H]1O[C@@H](c2cc(Cc3ccc(OC(F)(F)F)cc3)c(Cl)cc2O)[C@H](O)[C@@H](O)C1(F)F` [Compound 105]: 38.9% and 91.8%.
